Test results reported in patent publication US20240101546A1, “HETEROARYL-ACETYLENES, PHARMACEUTICAL COMPOSITIONS THEREOF, AND THEIR THERAPEUTIC APPLICATIONS” (Eubulus Biotherapeutics Inc., priority 2020, published 2024).

Tested on: hepatocellular carcinoma cell line Hub-7
Assay: Cell proliferation assay, Hub-7 (CELL-TITER GLO)
Assay type: cell-based
Settings: Hub-7 cells, 24 h incubation, cell viability by CELL-TITER GLO, top concentration 10 μM; read-out: EC50, Inhibition of Hub-7 Cell Proliferation
Procedure: The activity of a compound was determined in a cell proliferation assay using the hepatocellular carcinoma cell line Hub-7. Cells (4,000 cells per well) were seeded in a 96-well tissue culture plate. After incubated overnight, the compound was added at predetermined concentrations, starting with 10 μM and followed by 3-fold serial dilution. After the cells were incubated for 24 h, cell viability was determined using a CELL-TITER GLO® assay. The CELL-TITER GLO® reagent (50 μL) was added to each well and the luminescence was measured by a multimode microplate reader after a brief period of shaking. EC50 values were determined for the compound. The results are summarized in Table 1, wherein A represents a value no greater than 200 nM, B represents a value greater than 200 nM but no greater than 1 μM, C represents a value greater than 1 μM but no greater than 5 μM, and D represents a value greater than 5 μM.

Row | EC50 [µM] | Structure (SMILES)
1 | ≤ 0.2 | C#Cc1ncc(C(=O)N2CCN(c3ccc(-c4cccc5ncsc45)cc3)CC2)s1 [Compound D7, (4-(4-(benzo[d]thiazol-7-yl)phenyl)piperazin-1-yl)(2-ethynylthiazol-5-yl)methanone]
2 | 1 to 5 | C#Cc1nc(NC(=O)c2ccccc2)cs1 [Compound E12, N-(2-Ethynylthiazol-4-yl)benzamide]
3 | ≤ 0.2 | C#Cc1nc(C(=O)N2CCN(c3ccc(-c4c(C)ccc5c4cnn5C)cc3)CC2)cs1 [Compound D1, (4-(4-(1,5-Dimethyl-1H-indazol-4-yl)phenyl)piperazin-1-yl)(2-ethynylthiazol-4-yl)methanone]
4 | ≤ 0.2 | C#Cc1nc(C(=O)NCCc2ccc(-c3cccc4ncncc34)cc2)cs1 [Compound C24, 2-Ethynyl-N-(4-(quinazolin-5-yl)phenethyl)thiazole-4-carboxamide]
5 | ≤ 0.2 | C#Cc1nc(C(=O)N2CCC(c3ccc(C#N)cc3)CC2)cs1 [Compound D24, 4-(1-(2-Ethynylthiazole-4-carbonyl)piperidin-4-yl)benzonitrile]
6 | 1 to 5 | C#Cc1nc(C(=O)NCc2ccccc2)cs1 [Compound C148, N-Benzyl-2-ethynylthiazole-4-carboxamide]
7 | 1 to 5 | C#Cc1nc(C(=O)NCCc2ccc(N)cc2)cs1 [Compound C128, N-(4-Aminophenethyl)-2-ethynylthiazole-4-carboxamide]
8 | 0.2 to 1 | C#Cc1nc(C(=O)NCc2ccccc2Cl)cs1 [Compound C143, N-(2-Chlorobenzyl)-2-ethynylthiazole-4-carboxamide]
9 | 0.2 to 1 | C#Cc1nc(C(=O)NCCc2ccc(-c3ccccc3S(=O)(=O)NC)cc2)cs1 [Compound C20, 2-Ethynyl-N-(2-(2′-(N-methylsulfamoyl)-[1,1′-biphenyl]-4-yl)ethyl)thiazole-4-carboxamide]
10 | 1 to 5 | C#Cc1nc(C(=O)NCc2ccc3c(c2)OCCO3)cs1 [Compound C86, N-((2,3-Dihydrobenzo[b][1,4]dioxin-6-yl)methyl)-2-ethynylthiazole-4-carboxamide]
11 | ≤ 0.2 | C#Cc1nc(C(=O)NCCc2ccc(-c3cccc4c3ccn4C)cc2)cs1 [Compound C50, 2-Ethynyl-N-(4-(1-methyl-1H-indol-4-yl)phenethyl)thiazole-4-carboxamide]
12 | 1 to 5 | C#Cc1nc(C(=O)NCCc2cccc(NS(C)(=O)=O)c2)cs1 [Compound C81, 2-Ethynyl-N-(3-(methylsulfonamido)phenethyl)thiazole-4-carboxamide]
13 | ≤ 0.2 | C#Cc1nc(C(=O)N2CCN(c3ccc(-c4cccc5c4cnn5C)cc3)CC2)cs1 [Compound D22, (2-Ethynylthiazol-4-yl)(4-(4-(1-methyl-1H-indazol-4-yl)phenyl)piperazin-1-yl)-methanone]
14 | 1 to 5 | C#Cc1nc(C(=O)NC[C@@H](O)c2ccccc2)cs1 [Compound C135, (S)-2-Ethynyl-N-(2-hydroxy-2-phenylethyl)thiazole-4-carboxamide]
15 | ≤ 0.2 | C#Cc1nc(C(=O)NCCc2ccc(-c3cccc4ncsc34)c(F)c2)cs1 [Compound C2, N-(4-(Benzo[d]thiazol-7-yl)-3-fluorophenethyl)-2-ethynylthiazole-4-carboxamide]
16 | 1 to 5 | C#Cc1nc(C(=O)NCCc2cccc(NC(C)=O)c2)cs1 [Compound C82, N-(3-Acetamidophenethyl)-2-ethynylthiazole-4-carboxamide]
17 | ≤ 0.2 | C#Cc1nc(NC(=O)CCc2ccc(-c3cccc4c3cnn4C)cc2)cs1 [Compound E4, N-(2-Ethynylthiazol-4-yl)-3-(4-(1-methyl-1H-indazol-4-yl)phenyl)propanamide]
18 | 1 to 5 | C#Cc1nc(C(=O)N(C)Cc2ccccc2)cs1 [Compound C137, N-Benzyl-2-ethynyl-N-methylthiazole-4-carboxamide]
19 | 1 to 5 | C#Cc1nc(NC(=O)NCc2ccc(-c3c(C(=O)NC)ccc4ncsc34)cc2)cs1 [Compound A17, 7-(4-((3-(2-Ethynylthiazol-4-yl)ureido)methyl)phenyl)-N-methylbenzo[d]-thiazole-6-carboxamide]
20 | ≤ 0.2 | C#Cc1nc(C(=O)N2CCC(O)(c3ccc(-c4cccc5ncsc45)cc3)CC2)cs1 [Compound D14, (4-(4-(Benzo[d]thiazol-7-yl)phenyl)-4-hydroxypiperidin-1-yl)(2-ethynylthiazol-4-yl)methanone]
21 | 0.2 to 1 | C#Cc1nc(C(=O)N[C@H]2CCc3ccccc32)cs1 [Compound C71, (S)—N-(2,3-Dihydro-1H-inden-1-yl)-2-ethynylthiazole-4-carboxamide]
22 | 1 to 5 | C#Cc1nc(C(=O)N(CC(=O)OCC)Cc2ccccc2)cs1 [Compound C131, Ethyl N-benzyl-N-(2-ethynylthiazole-4-carbonyl)glycinate]

Row | EC50 [µM] | Structure (SMILES)
23 | 1 to 5 | C#Cc1nc(C(=O)NCc2ccc(-c3cn[nH]c3)cc2)cs1 [Compound C92, N-(4-(1H-Pyrazol-4-yl)benzyl)-2-ethynylthiazole-4-carboxamide]
24 | 0.2 to 1 | C#Cc1nc(C(=O)NCc2ccc(-c3ccn(C)n3)cc2)cs1 [Compound C54, 2-Ethynyl-N-(4-(1-methyl-1H-pyrazol-3-yl)benzyl)thiazole-4-carboxamide]
25 | 1 to 5 | C#Cc1nc(C(=O)NCCc2ccc(-c3ccccc3C(=O)NC)cc2)cs1 [Compound C12, 2-Ethynyl-N-(2-(2′-(methylcarbamoyl)-[1,1′-biphenyl]-4-yl)ethyl)thiazole-4-carboxamide]
26 | ≤ 0.2 | C#Cc1nc(C(=O)NCCc2ccc(-c3cccc(C(=O)NC)c3)cc2)cs1 [Compound C4, 2-Ethynyl-N-(2-(3′-(methylcarbamoyl)-[1,1′-biphenyl]-4-yl)ethyl)thiazole-4-carboxamide]
27 | 0.2 to 1 | C#Cc1nc(C(=O)NCCc2ccc(-c3cscn3)cc2)cs1 [Compound C53, 2-Ethynyl-N-(4-(thiazol-4-yl)phenethyl)thiazole-4-carboxamide]
28 | 1 to 5 | C#Cc1nc(NC(=O)[C@@H](N)Cc2ccccc2)cs1 [Compound E2, (S)-2-Amino-N-(2-ethynylthiazol-4-yl)-3-phenylpropanamide]
29 | ≤ 0.2 | C#Cc1nc(NC(=O)NCc2ccc(-c3cccc(N4CCCC4)c3)cc2)cs1 [Compound A7, 1-(2-Ethynylthiazol-4-yl)-3-((3′-(pyrrolidin-1-yl)-[1,1′-biphenyl]-4-yl)methyl)urea]
30 | ≤ 0.2 | C#Cc1nc(C(=O)NCCc2ccc(-c3cccc4ncsc34)cc2)cs1 [Compound C34, N-(4-(Benzo[d]thiazol-7-yl)phenethyl)-2-ethynylthiazole-4-carboxamide]
31 | 0.2 to 1 | C#Cc1nc(C(=O)N2CCc3ccccc3C2)cs1 [Compound D30, (3,4-Dihydroisoquinolin-2(1H)-yl)(2-ethynylthiazol-4-yl)methanone]
32 | > 5 | C#Cc1nc(C(=O)NCc2ccccc2)cn1C [Compound C98, N-Benzyl-2-ethynyl-1-methyl-1H-imidazole-4-carboxamide]
33 | 0.2 to 1 | C#Cc1nc(NC(=O)NCc2ccc(-c3cccc4c3S(=O)(=O)C=C4)cc2)cs1 [Compound A1, 1-(4-(1,1-Dioxidobenzo[b]thiophen-7-yl)benzyl)-3-(2-ethynylthiazol-4-yl)urea]
34 | 1 to 5 | C#Cc1nc(C(=O)NCc2ccc(O)cc2)cs1 [Compound C121, 2-Ethynyl-N-(4-hydroxybenzyl)thiazole-4-carboxamide]
35 | ≤ 0.2 | C#Cc1nc(C(=O)NCCc2ccc(-c3cccc4[nH]ncc34)cc2)cs1 [Compound C49, N-(4-(1H-Indazol-4-yl)phenethyl)-2-ethynylthiazole-4-carboxamide]
36 | ≤ 0.2 | C#Cc1nc(C(=O)N2CCN(c3ccc(-c4cccc5ncsc45)cc3)CC2)cs1 [Compound D17, (4-(4-(Benzo[d]thiazol-7-yl)phenyl)piperazin-1-yl)(2-ethynylthiazol-4-yl)-methanone]
37 | 0.2 to 1 | C#Cc1nc(C(=O)NCc2ccc(-c3cncs3)cc2)cs1 [Compound C61, 2-Ethynyl-N-(4-(thiazol-5-yl)benzyl)thiazole-4-carboxamide]
38 | > 5 | C#Cc1nc(C(=O)NCCc2ccc(S(C)(=O)=O)cc2)cs1 [Compound C101, 2-Ethynyl-N-(4-(methylsulfonyl)phenethyl)thiazole-4-carboxamide]
39 | 1 to 5 | C#Cc1nc(C(=O)NCc2cccc(-c3cn[nH]c3)c2)cs1 [Compound C58, N-(3-(1H-Pyrazol-4-yl)benzyl)-2-ethynylthiazole-4-carboxamide]
40 | ≤ 0.2 | C#Cc1nc(C(=O)NCCc2ccc(-c3cc(C(=O)OC)cc4ncsc34)cc2)cs1 [Compound C10, Methyl 7-(4-(2-(2-ethynylthiazole-4-carboxamido)ethyl)phenyl)benzo[d]thiazole-5-carboxylate]
41 | > 5 | C#Cc1nc(C(=O)NCc2ccc(CCC(=O)OC)cc2)cs1 [Compound C73, Methyl 3-(4-((2-ethynylthiazole-4-carboxamido)methyl)phenyl)propanoate]
42 | 0.2 to 1 | C#Cc1nc(C(=O)NCc2cccc(C(=O)OC)c2)cs1 [Compound C124, Methyl 3-((2-ethynylthiazole-4-carboxamido)methyl)benzoate]
43 | 0.2 to 1 | C#Cc1nc(NC(=O)NCc2ccc(-c3ccccc3S(=O)(=O)NC)cc2)cs1 [Compound A13, 4′-((3-(2-Ethynylthiazol-4-yl)ureido)methyl)-N-methyl-[1,1′-biphenyl]-2-sulfonamide]
44 | > 5 | N#Cc1nc(C(=O)NCc2ccccc2)cs1 [Compound C90, N-Benzyl-2-cyanothiazole-4-carboxamide]
